Assay results taken from ChEMBL document CHEMBL2346569, “Synthesis and biological evaluation of pyridazine derivatives as novel HIV-1 NNRTIs” (Bioorg Med Chem, 2013).

Columns and labels:
[1] = Cytotoxicity against mock-infected human MT4 cells assessed as cell viability after 5 days by MTT assay; type: cell-based
[2] = test system: Human immunodeficiency virus 2; assay: Antiviral activity against HIV2 ROD infected in human MT4 cells assessed as protection against virus-induced cytopathicity after 5 days by MTT assay; type: functional, organism-based, ISOLATE ROD
[3] = Selectivity index, ratio of CC50 for mock-infected human MT4 cells to EC50 for wild type HIV1 3B
[4] = test system: Human immunodeficiency virus 1; assay: Antiviral activity against HIV1 RES056 harboring reverse transcriptase K103N/Y181C double mutant infected in human MT4 cells assessed as protection against virus-induced cytopathicity after 5 days by MTT assay; type: functional, organism-based
[5] = test system: Human immunodeficiency virus 1; assay: Antiviral activity against wild type HIV1 3B infected in human MT4 cells assessed as protection against virus-induced cytopathicity after 5 days by MTT assay; type: functional, organism-based; conditions: Human immunodeficiency virus 1, 3B, MT4, 120 h
[6] = test system: Human immunodeficiency virus 1; assay: Antiviral activity against wild type HIV1 LAI infected in human MT4 cells assessed as protection against virus-induced cytopathicity after 5 days by MTT assay; type: functional, organism-based; conditions: Human immunodeficiency virus 1, LAI, MT4, 120 h
[7] = target: Human immunodeficiency virus type 1 reverse transcriptase (Human immunodeficiency virus 1, UniProt Q72547); assay: Inhibition of HIV 1 reverse transcriptase assessed as incorporation of biotin-dUTP into poly rA.dT by ELISA
[8] = test system: Human immunodeficiency virus 1; assay: Antiviral activity against HIV1 harboring reverse transcriptase L100I/K103N double mutant infected in human MT4 cells assessed as protection against virus-induced cytopathicity after 5 days by MTT assay; type: functional, organism-based; conditions: Human immunodeficiency virus 1, MT4, 120 h
[9] = test system: Human immunodeficiency virus 1; assay: Antiviral activity against HIV1 harboring reverse transcriptase K103N/Y181C double mutant infected in human MT4 cells assessed as protection against virus-induced cytopathicity after 5 days by MTT assay; type: functional, organism-based; conditions: Human immunodeficiency virus 1, MT4, 120 h

Compound	CC50 at 120 h [1]	EC50 ([2]; mt4)	selectivity ratio ([3]; mock-infected MT4 cells)	EC50 ([4]; mt4)	EC50 [5]	EC50 [6]	IC50 [7]	EC50 ([2]; Human immunodeficiency virus 2, ISOLATE ROD, MT4, 120 h, read-out: EC50)	selectivity ratio ([3]; mt4)	EC50 ([4]; Human immunodeficiency virus 1, RES056, MT4, 120 h, read-out: EC50)	EC50 [8]	EC50 [9]
COc1cccc(OC)c1Oc1cc(Nc2ccc(C#N)cc2)nnc1Cl	2.9 µM	Not Active	< 1	Not Active	> 2900 nM							
N#Cc1ccc(Nc2cc(Oc3c(Br)cc(Br)cc3Br)c(Cl)nn2)cc1	22.3 µM	Not Active	124	Not Active	180 nM							
Cc1cc(C#N)cc(C)c1Oc1nc(Nc2ccc(C#N)cc2)nc(N)c1Br [ETRAVIRINE]	> 4.6 µM	Not Active										
Cc1cc(C)c(Oc2cc(Nc3ccc(C#N)cc3)nn(C)c2=O)c(C)c1	143 µM	Not Active	123	Not Active	1160 nM							
Cc1cc(C#N)cc(C)c1Oc1cc(Nc2ccc(C#N)cc2)n[nH]c1=O	272 µM	Not Active	96	Not Active	2830 nM							
Cc1cc(C#N)cc(C)c1Oc1ccc(=O)n(Nc2ccc(C#N)cc2)n1						1750 nM						
Cc1cc(C)c(Oc2cc(Nc3ccc(Cl)cc3)n[nH]c2=O)c(C)c1	5.98 µM	Not Active	8	Not Active	780 nM							
Cc1ccc(Nc2cc(Oc3c(C)cc(C)cc3C)c(Cl)nn2)cc1	244 µM	Not Active	1210	Not Active	201 nM							
Cc1cc(C)c(Oc2cc(Nc3ccc([N+](=O)[O-])cc3)n[nH]c2=O)c(C)c1	37.1 µM	Not Active	7	Not Active	5080 nM							
Cc1cc(C)c(Oc2cc(Nc3ccc(C#N)cc3)nnc2Cl)c(C)c1	36.3 µM	Not Active	461	Not Active	79 nM							
Cc1cc(Br)c(Oc2cc(Nc3ccc(C#N)cc3)n[nH]c2=O)c(Br)c1	154 µM	Not Active	733	Not Active	210 nM							
Cc1cc(Br)c(Oc2cc(Nc3ccc(C#N)cc3)nnc2Cl)c(Br)c1	19.2 µM	Not Active	565	Not Active	34 nM		3.18 µM					
CC(C)Nc1cccnc1N1CCN(C(=O)c2cc3cc(NS(C)(=O)=O)ccc3[nH]2)CC1 [DELAVIRDINE]	> 43.4 µM	Not Active	> 1030	Not Active	42 nM							
O=C1Nc2ccc(Cl)cc2[C@@](C#CC2CC2)(C(F)(F)F)O1 [EFAVIRENZ]	> 2 µM				7 nM			20 nM	> 286	590 nM		
Cc1ccc(Nc2cc(Oc3c(C)cc(C)cc3C)c(=O)[nH]n2)cc1	185 µM	Not Active	119	Not Active	1550 nM							
N#Cc1ccc(Nc2cc(Oc3c(Cl)cc(Cl)cc3Cl)c(Cl)nn2)cc1	18.6 µM	Not Active	120	Not Active	155 nM							

Compound	CC50 at 120 h [1]	EC50 ([2]; mt4)	selectivity ratio ([3]; mock-infected MT4 cells)	EC50 ([4]; mt4)	EC50 [5]	EC50 [6]	IC50 [7]	EC50 ([2]; Human immunodeficiency virus 2, ISOLATE ROD, MT4, 120 h, read-out: EC50)	selectivity ratio ([3]; mt4)	EC50 ([4]; Human immunodeficiency virus 1, RES056, MT4, 120 h, read-out: EC50)	EC50 [8]	EC50 [9]
Cc1cccc(C)c1Oc1cc(Nc2ccc(C#N)cc2)nnc1Cl	290 µM	Not Active	537	Not Active	540 nM							
Cc1cc(C)c(Oc2cc(Nc3ccc(Cl)cc3)nnc2Cl)c(C)c1	210 µM	Not Active	1510	Not Active	139 nM							
Cc1cc(C)c(Oc2cc(Nc3cccc(Cl)c3)n[nH]c2=O)c(C)c1	119 µM	Not Active	8	Not Active	14400 nM							
N#Cc1ccc(Nc2cc(Oc3c(Cl)cc(Cl)cc3Cl)c(=O)[nH]n2)cc1	35 µM	Not Active		Not Active	≥ 9200 nM							
Cc1cc(Br)cc(C)c1Oc1cc(Nc2ccc(C#N)cc2)nnc1Cl	84.1 µM	Not Active	210	Not Active	400 nM							
N#Cc1ccc(Nc2cc(Oc3c(Cl)cccc3Cl)c(Cl)nn2)cc1	93.1 µM	Not Active	423	Not Active	220 nM							
Cc1cc(C#N)cc(C)c1Oc1nc(Nc2ccc(C#N)cc2)c(=O)n(C)c1C						6 nM					158 nM	61 nM
N#Cc1ccc(Nc2cc(Oc3c(Br)cc(Br)cc3Br)c(=O)[nH]n2)cc1	139 µM	Not Active	221	Not Active	630 nM							
Cc1cc(C#N)cc(C)c1Oc1cc(Nc2ccc(C#N)cc2)nnc1Cl	53.2 µM	Not Active	369	Not Active	144 nM							
Cc1cc(Br)cc(C)c1Oc1cc(Nc2ccc(C#N)cc2)n[nH]c1=O	19.5 µM	Not Active	16	Not Active	1190 nM							
Cc1cc(C)c(Oc2cc(N(C)c3ccc(C#N)cc3)nn(C)c2=O)c(C)c1	≥ 246 µM	Not Active	≥ 73	Not Active	3360 nM							
Cc1cc(C)c(Oc2cc(Nc3ccc(C#N)cc3)n[nH]c2=O)c(C)c1	47 µM	Not Active	180	Not Active	260 nM							
Cc1cc(C)c(Oc2cc(Nc3ccc([N+](=O)[O-])cc3)nnc2Cl)c(C)c1	0.94 µM	Not Active	< 1	Not Active	> 940 nM							
Cc1cccc(C)c1Oc1cc(Nc2ccc(C#N)cc2)n[nH]c1=O	205 µM	Not Active	108	Not Active	1900 nM							
Cc1ccnc2c1NC(=O)c1cccnc1N2C1CC1 [NEVIRAPINE]	> 14.9 µM	Not Active		Not Active								
COc1ccc(Nc2cc(Oc3c(C)cc(C)cc3C)c(=O)[nH]n2)cc1	5.88 µM	Not Active	4	Not Active	1590 nM							
